Like-named read-outs stand apart in the source and are kept apart here. Non-standard residues stand in square brackets, D forms with d. Residues, ends and D or L forms follow the SMILES beside them.
What was measured:
[1] = test system: ETA and ETB receptors; settings: cited from earlier work
[2] = test system: breast tumor; assay: Breast tumor blood perfusion by Laser Doppler Flowmetry in MNU-induced mammary tumor rats; type: in vivo, rat; settings: for Maximal increase in tumor perfusion (%): Laser Doppler Flowmetry, breast tumor-bearing rats
Description: MNU or saline treatments were carried out as intraperitoneal injections three months prior to the study. Rats were regularly palpated from four weeks after onset of the treatments. When the tumors reached an optimal size (i.e., 4-8 mm in diameter), the experiments were begun. Systemic hemodynamic and regional circulation parameters were determined at baseline, 30, 60, and 120 minutes after initiating ET-1 (50 ng/kg/min) infusion.
Blood perfusion to the mammary gland of the rats was measured using laser Doppler flowmetry as described in literature procedures (23, 24). The animals were shaved around the nipples. The skin surrounding the mammary glands was dissected out as a lambeau about 6 cm wide and 4 cm long. A standard model fiber optic probe was applied to the surface of the lambeau, and secured to the tissue by double stick tape. The lambeau was placed in a metal holder and taped down to prevent movement, then connected to a Periflux PF2b 4000 Laser Doppler Flowmetry (Perimed KB, Stockholm, Sweden). The time constant was set at 1.5 seconds and the bandwidth was set at 4 KHz.
A preclinical model of MNU-induced primary autochthonous mammary tumor was used in the following studies. This tumor model of breast cancer offers several advantages over other models (Rai et al., Cancer Chemother. Parmaacol., 51(1):21-8 (2003)). Virgin female Sprague Dawley rats were used for the study. At 48 days of age, rats received a single injection of N-methyl nitrosourea (MNU; 50 mg/kg, i.v.). Eighty percent of the animals developed tumors two months after MNU injection and 10% of total rats may die or loose weight due to MNU injection or develop a tumor after several months. Tumor appearance and location is monitored by manual mammary gland palpation and the tumor diameter is measured with a digital caliper. Rats with a tumor volume of 200-500 mm^3 were selected for the experiments.
FIG. 2 illustrates the effect of IRL-1620 on breast tumor perfusion (N=5/group). Breast tumor-bearing rats were anesthetized and mammary tumor perfusion was recorded using a Laser Doppler Flowmetry for three hours. A 15-minute stable baseline recording was obtained before the administration of saline or IRL-1620 1, 3, or 9 nmol/kg via the tail vein in a final volume of 0.2 ml. Tumor perfusion was recorded for three hours (*p<0.001 compared to vehicle-treated rats).
Animals received BQ 788 ([…]) or saline via tail vein 15 minutes before the administration of IRL-1620 (3 nmol/kg) and tumor perfusion was recorded for three hours (*p<0.001 compared to BQ 788-administered rats). Studies also were conducted to determine the effect of IRL-1620 on blood perfusion in normal mammary tissue.

[3] = test system: tumor; assay: Tumor blood flow with ETA receptor antagonists; settings: in vivo
Description: A study using BMS182874, an ETA receptor antagonist, also was conducted.

[4] = test system: tumor; settings: Sonveaux et al. 2004; cited from earlier work

Row | Compound | Selectivity for ETB receptors than ETA receptors [1] | Maximal increase in tumor perfusion (%) [2] [%] | other results
1 | CC[C@H](C)[C@H](NC(=O)[C@H](CC(=O)O)NC(=O)[C@H](CC(C)C)NC(=O)[C@H](Cc1c[nH]cn1)NC(=O)[C@@H]1CSSC[C@H](N)C(=O)N[C@@H](CO)C(=O)N[C@H]2CSSC[C@H](NC(=O)[C@H](CCC(=O)O)NC(=O)[C@H](CCCCN)NC(=O)[C@H](CC(=O)O)NC(=O)[C@H](CCSC)NC(=O)[C@H](CC(C)C)NC(=O)[C@H](CO)NC(=O)[C@H](CO)NC2=O)C(=O)N[C@@H](C(C)C)C(=O)N[C@@H](Cc2ccc(O)cc2)C(=O)N[C@@H](Cc2ccccc2)C(=O)N1)C(=O)N[C@H](C(=O)N[C@@H](Cc1c[nH]c2ccccc12)C(=O)O)[C@@H](C)CC [ET-1, Endothelin-1] | equal affinity | 46.19 | Breast tumor perfusion after exogenous infusion ([2]; rat, in vivo): transient increase; Perfusion to major organs ([2]; rat, in vivo): without altering perfusion
2 | CCCC[C@@H](NC(=O)[C@@H](Cc1cn(C(=O)OC)c2ccccc12)NC(=O)[C@H](CC(C)(C)C)NC(=O)N1[C@H](C)CCC[C@@H]1C)C(=O)O [BQ788, N-cis-2,6-dimethylpiperidinocarbonyl-L-gamma-methylleucyl-D-1-methoxycarbonyltrptophanyl-D-Nle] |  |  | Effect of antagonist on IRL-1620 induced tumor blood perfusion ([2]; BQ 788 0.5 μg/kg 15 minutes before IRL-1620 3 nmol/kg): completely blocked; Effect of antagonist on ET-1 induced increase in tumor blood flow ([2]; ET-1 induced): completely blocked
3 | [Ala^1, 3, 11, 15]-ET-1 (ASASSLMDKEAVYFAHLDIIW; Endothelin-1; UniProt P05305 53-73, looked up, variant C1A C3A C11A C15A) [4 Ala ET-1] | 1700 times | 53.96 | 
4 | Cc1noc(NS(=O)(=O)c2cccc3c(N(C)C)cccc23)c1C [BMS182874] |  |  | Tumor blood flow [3]: increased the tumor blood flow
5 | CC(C)C[C@@H]1NC(=O)[C@@H](C(C)C)NC(=O)[C@@H]2CCCN2C(=O)[C@@H](CC(=O)O)NC(=O)[C@@H](Cc2c[nH]c3ccccc23)NC1=O [BQ123] (cyclo(L[dW][dD]P[dV])) |  |  | Tumor blood flow [4]: significantly improved
6 | ET-3: ET agonist three times more selective for ETB receptors than ETA receptors | three times more selective | 47.99 | 
